{
  "source": "patent US4503065A",
  "about": "“Antiinflammatory 4,5-diaryl 1-2-halo imidazoles” (E. I. Du Pont de Nemours and Company, priority 1982, dated 1985)",
  "tested_on": "adjuvant-induced arthritis in rats",
  "test": "Established adjuvant-induced arthritis in rats (paw volume of uninjected left hind paw)",
  "assay_type": "in vivo, Charles River Lewis male rats",
  "conditions": "for ED50: read-out: Adjuvant Arthritis ED50 (effective dose at which a 50% decrease from control paw volume is observed); for Percent decrease from control paw volume: 7 days",
  "key": {"[1]": {"conditions": "at 50 mg/kg daily dose, rat, oral gavage"}, "[2]": {"conditions": "at 27 mg/kg daily dose, rat, oral gavage"}, "[3]": {"conditions": "rat, oral gavage, daily for 7 days, paw volume one day after last dose, ED50 by visual-fit regression"}},
  "note": "Like-named read-outs stand apart in the source and are kept apart here.",
  "data": [
    {"smiles": "CC(=O)Oc1ccccc1C(=O)O", "note": "[Aspirin, reference compound]", "values": [
      {"measurement": "ED50", "setting": "Rattus norvegicus, po", "value": 305, "unit": "mg/kg"}
    ]},
    {"smiles": "Br.Fc1ccc(-c2nc(Br)[nH]c2-c2ccc(F)cc2)cc1", "note": "[Example 1, 2-Bromo-4,5-bis(4-fluorophenyl)-1H-imidazole, Hydrobromide]", "values": [
      {"measurement": "Percent decrease from control paw volume", "setting": "[1]", "value": 33, "unit": "%"}
    ]},
    {"smiles": "Br.COc1ccc(-c2nc(Br)[nH]c2-c2ccc(OC)cc2)cc1", "note": "[Example 2, 2-Bromo-4,5-bis(4-methoxyphenyl)-1H-imidazole, Hydrobromide]", "values": [
      {"measurement": "Percent decrease from control paw volume", "setting": "[2]", "value": 46, "unit": "%"}
    ]},
    {"smiles": "Br.Clc1ccc(-c2nc(Br)[nH]c2-c2ccc(Cl)cc2)cc1", "note": "[Example 3, 2-Bromo-4,5-bis(4-chlorophenyl)-1H-imidazole, Hydrobromide]", "values": [
      {"measurement": "ED50", "setting": "[3]", "value": 5.2, "unit": "mg/kg"}
    ]},
    {"smiles": "Br.CSc1ccc(-c2nc(Br)[nH]c2-c2ccc(SC)cc2)cc1", "note": "[Example 4, 2-Bromo-4,5-bis(4-methylthiophenyl)-1H-imidazole, Hydrobromide]", "values": [
      {"measurement": "Percent decrease from control paw volume", "setting": "[2]", "value": 26, "unit": "%"}
    ]},
    {"smiles": "COc1ccc(-c2nc(Cl)[nH]c2-c2ccc(OC)cc2)cc1.Cl", "note": "[Example 5, 2-Chloro-4,5-bis(4-methoxyphenyl)-1H-imidazole, Hydrochloride]", "values": [
      {"measurement": "Percent decrease from control paw volume", "setting": "[2]", "value": 17, "unit": "%"}
    ]},
    {"smiles": "COc1ccc(-c2nc(Cl)n(C)c2-c2ccc(OC)cc2)cc1", "note": "[Example 6, 2-Chloro-4,5-bis(4-methoxyphenyl)-1-methyl-1H-imidazole]", "values": [
      {"measurement": "Percent decrease from control paw volume", "setting": "[2]", "value": 35, "unit": "%"}
    ]},
    {"smiles": "CCOC(C)n1c(Cl)nc(-c2ccc(OC)cc2)c1-c1ccc(OC)cc1", "note": "(centres unmarked) [Example 7, 2-Chloro-1-(1-ethoxyethyl)-4,5-bis(4-methoxyphenyl)-1H-imidazole]", "values": [
      {"measurement": "Percent decrease from control paw volume", "setting": "[1]", "value": 37, "unit": "%"}
    ]},
    {"smiles": "CC(C)Cc1ccc(C(C)C(=O)O)cc1", "note": "(centres unmarked) [Ibuprofen, reference compound]", "values": [
      {"measurement": "ED50", "setting": "[3]", "value": 100, "unit": "mg/kg"}
    ]},
    {"smiles": "COc1ccc2c(c1)c(CC(=O)O)c(C)n2C(=O)c1ccc(Cl)cc1", "note": "[Indomethacin, reference compound]", "values": [
      {"measurement": "ED50", "setting": "Rattus norvegicus, po", "value": 0.3, "unit": "mg/kg"}
    ]},
    {"smiles": "CCCCC1C(=O)N(c2ccccc2)N(c2ccccc2)C1=O", "note": "[Phenylbutazone, reference compound]", "values": [
      {"measurement": "ED50", "setting": "[3]", "value": 10, "unit": "mg/kg"}
    ]}
  ]
}
